The values that follow come from patent publication US8343939B2, “Methods of modulating angiogenesis” (Joslin Diabetes Center, Inc., priority 2007, dated 2013).

Test [1] deals with Akt Ser473 phosphorylation. Kind of test: Western blot of Akt phosphorylation in BAEC. It counts as cell-based, bovine. The note with it: for Akt Ser473 phosphorylation increased after stimulation: BAEC, insulin 100 nM or VEGF 1 nM; for decrease in Akt Ser473 phosphorylation: PMA 100 nM, 30 minutes. The protocol: (§1) Bovine aortic endothelial cells (BAEC) were isolated by scraping the luminal side of a calf aorta with a cover glass and transferring the harvested material to a 100 mm cell culture dish. The primary culture and subcultures were grown in Dulbecco's modified Eagle medium (DMEM) with 5.5 mM glucose, 10% (v/v) horse serum, 25 mM HEPES, 100 U/ml penicillin, and 100 μg/ml streptomycin in collagen I-coated dishes (BioCoat, BD BioSciences). Purity of the cultures was validated by the presence of typical “cobblestone” morphology during phase-contrast microscopy (16) and by the ability of cells to take up acetylated LDL (DiI AcLDL, Molecular Probes, Eugene, Oreg.). Cultures used for experiments were plated in 6-well plates (9.5 cm^2 wells), except for PKC translocation assays (see below). The cells were serum-starved for 16 hours before stimulation by replacing growth medium with DMEM containing 0.1% (w/v) bovine serum albumin. At the time of stimulation, cultures were typically 3 days old and confluent. GF109203X (GFX) (Calbiochem, San Diego, Calif.), wortmannin (Calbiochem), phorbol-12-myristate-13-acetate (PMA) (Sigma, St. Louis, Mo.), bovine insulin (Sigma), and VEGF-A165 (R & D Systems, Minneapolis, Minn.) were added directly to the culture medium when indicated, using an identical volume of solvent as control.
(§2) Cultures were washed twice with ice-cold PBS and lysed in a buffer containing Tris (20 mM, pH 7.5), Triton X-100 (1% v/v), sodium pyrophosphate (2.5 mM); NaF (10 mM), NaCl (140 mM), EDTA (1 mM), EGTA (1 mM), β-glycerophosphate (1 mM), Na3VO4 (1 mM), leupeptin (1 μg/ml=2 μM), aprotinin (1 μg/ml=[…]), and phenylmethylsulfonylfluoride (1 mM). Protein concentration was measured by the Bradford method and samples reduced in modified Laemmli buffer (Invitrogen) and heated at 70° C. for 10 minutes. Equal sample volume and protein mass and reduced samples were separated on precast minigels (NuPAGE tris-acetate gels, Invitrogen) and electrotransferred to nitrocellulose.
(§3) Primary antibody targets were visualized by incubation with horseradish peroxidase-linked secondary antibodies, enhanced chemiluminescence (Amersham Biosciences (currently GE Healthcare), Piscataway, N.J.), and exposure to X-ray film (Kodak, New Haven, Conn.). The film was scanned and signal intensity of protein bands quantitated with ImageQuant software (version 5.1, Molecular Dynamics/Amersham Biosciences/GE Healthcare, Piscataway, N.J.). The intensity of phospho-specific immunoblot was normalized to the intensity of the unstimulated condition and of the nonphospho-specific protein.
BAEC were stimulated with insulin (100 nM, 5 minutes) or VEGF (1 nM, 5 minutes) after pretreatment with PMA (100 nM, 30 minutes) or vehicle as a control (DMSO, 0.2% (v/v)). Akt and eNOS phosphorylation in the BAEC was examined. […]
(§4) BAEC were stimulated with insulin (100 nM, 5 minutes) or VEGF (1 nM, 5 minutes) after pretreatment with wortmannin (100 nM, 30 minutes before insulin or VEGF stimulation) or vehicle (DMSO 0.2% (v/v)). In some experiments (FIG. 2C), BAEC were incubated with wortmannin (60 minutes before VEGF stimulation) or DMSO, then with PMA (30 minutes before VEGF stimulation) or DMSO.
Background: In western blotting, separated proteins are transferred to a membrane and probed.

The test system of test [2] is eNOS Ser1179 phosphorylation. Kind of test: Western blot of eNOS phosphorylation in BAEC. It counts as cell-based, bovine. The note with it: for eNOS Ser1179 phosphorylation increased during stimulation: insulin 100 nM or VEGF 1 nM. The protocol: as §1, §2, §3
BAEC were stimulated with insulin (100 nM, 5 minutes) or VEGF (1 nM, 5 minutes) after pretreatment with PMA (100 nM, 30 minutes) or vehicle as a control (DMSO, 0.2% (v/v)). Akt and eNOS phosphorylation in the BAEC was examined. In some experiments (FIGS. 1C and 1D), BAEC were also incubated with GFX (1 μM) or vehicle (DMSO 0.2%) 60 minutes before insulin or VEGF stimulation.
as §4

The next test relates to PKCε. The note with it: for translocation of PKCε from cytosol to membrane fractions: VEGF 1 nM, 3, 10 or 30 minutes, PMA 100 nM, 10 minutes.
A further test deals with PKCδ. The note with it: for translocation of PKCδ from cytosol to membrane fractions: VEGF 1 nM, 3, 10 or 30 minutes, PMA 100 nM, 10 minutes.
Another test concerns BAEC. Kind of test: DNA synthesis by BrdU incorporation in BAEC. Type of test: cell-based, bovine. The note with it: control siRNA condition; VEGF 1 nM. How it is done: For measurement of DNA synthesis, cells were trypsin-treated 2 days after transfection with siRNA, and 10,000 cells were added to each well (0.32 cm^2) of 96-well plates in serum-free DMEM with 0.1% BSA, with or without VEGF 1 nM. After 16 hours, cells were labeled with 5-bromo-2′-deoxyuridine (BrdU) according to the manufacturer's instructions (Roche Applied Science, Penzberg, Germany). In short, the medium was replaced with medium containing 10 μM BrdU. After an additional 8 hours, cells were fixed and incubated with anti-BrdU antibody conjugated with peroxidase. After washing, a solution of tetramethyl-benzidine was added, and the color reaction quantitated by measuring the difference between the optical density at 370 and 492 nm.
(Incorporation of labelled thymidine or its analogues reports DNA synthesis.)

The next test deals with Erk1/2 phosphorylation. Kind of test: Western blot of Erk1/2 phosphorylation in BAEC. The note with it: control siRNA; VEGF 1 nM, 5 minutes. It counts as cell-based, bovine. The protocol: as §2, §3
The test system of the next test is VEGFR2. Kind of test: VEGFR2 protein expression (immunoprecipitation and immunoblot) in BAEC. It counts as cell-based, bovine. The note with it: cells transfected with control siRNA; VEGF 1 nM, 5 minutes. The protocol: For VEGFR2 and VEGFR1 immunoprecipitation, approximately 1 mg of protein was immunoprecipitated with 20 μg polyclonal antibody (Santa Cruz Biotechnology, Santa Cruz, Calif.) and washed 3 times with lysis buffer. Whole cell lysate or immunoprecipitates were reduced by addition of modified Laemmli buffer (Invitrogen) and heating to 70° C. for 10 minutes. Samples were then separated on precast minigels (NuPAGE tris-acetate gels, Invitrogen) and electrotransferred to a nitrocellulose membrane. […]
Primary antibody targets were visualized by incubation with horseradish peroxidase-linked secondary antibodies, enhanced chemiluminescence (Amersham Biosciences (currently GE Healthcare), Piscataway, N.J.), and exposure to X-ray film (Kodak, New Haven, Conn.). The film was scanned and signal intensity of protein bands quantitated with ImageQuant software (version 5.1, Molecular Dynamics/Amersham Biosciences/GE Healthcare, Piscataway, N.J.). […]

The target of a further test is PKCα (Bos taurus, UniProt P04409). Kind of test: Membrane translocation of PKC isoforms (cell fractionation, immunoblot) in BAEC. The note with it: for translocation of PKCα from cytosol to membrane fractions: VEGF 1 nM, 3, 10 or 30 minutes, PMA 100 nM, 10 minutes. Type of test: cell-based, bovine.
A further test has as its system eNOS, Akt, Erk, or p38. Kind of test: Phosphorylation of eNOS, Akt, Erk, p38 after placental growth factor in BAEC. Type of test: cell-based, bovine. The note with it: data not shown. How it is done:
Next, VEGFR1 and VEGFR2 expression was examined. BAEC were transfected with siRNA, including the PKCε siRNA used in the previous experiments (abbreviated “ε1” here) and a second PKCε (“ε2”), grown, and serum-starved. VEGFR2 (a) or VEGFR1 (b) mRNA was measured in cell lysate by real-time PCR VEGF signal transduction during PKC knockdown could change because VEGFR2 expression results in a secondary change in VEGFR1/Fms-like tyrosine kinase-1 (Flt-1) expression. Indeed, PKCα and PKCδ knockdown increased VEGFR1 mRNA expression to 240±20 and 178±1% of the control siRNA condition, respectively (FIG. 12b, p<0.01). […] VEGFR1 protein or VEGFR1-mediated signal transduction was not detected by Western blotting in these cells. […] Thus, VEGFR1 protein is likely expressed at a very low level compared to VEGFR2 in BAEC. Changes seen in VEGF signal transduction during PKCα and δ knockdown could be influenced by upregulation of VEGFR1, but there is no indication that changes in VEGF signaling during PKCε knockdown can be attributed to changes in VEGFR1 mRNA expression.

The mark [3] stands for this setting: GFX 1 μM, 30 minutes pre-incubation, with or without insulin or VEGF.
Setting [4] is: control siRNA condition, VEGF 1 nM, 5 minutes.

Method for PKCδ: (§5) For each condition, three 15 cm plates (each 151 cm^2) were used. After stimulation, the plates were washed twice in ice-cold PBS and once in a hypertonic lysis buffer (Buffer A) containing Tris (pH 7.5, 20 mM), sucrose (300 mM), EDTA (2 mM), EGTA (0.5 mM), DTT (1 mM), leupeptin (10 μg/ml), and PMSF (1 mM). Each set of 3 plates were then scraped in a combined volume of 3 ml of hypertonic buffer, homogenized in a glass Dounce homogenizer, and centrifuged at 1,000×g for 10 minutes. The supernatant was ultracentrifuged at 100,000×g for 30 minutes, and the ensuing supernatant was taken aside and used as the cytosolic fraction. The pellet was washed once in Buffer B (Buffer A without sucrose), then homogenized in 2.7 ml Buffer B in a glass Dounce homogenizer, and finally lysed by adding 0.3 ml Triton X-100 to a final concentration of 1% (v/v) and rotated for 30 minutes. After ultracentrifugation at 100,000×g for 30 minutes, the supernatant was taken aside and used as the membrane fraction. By using similar volumes for the initial lysis and for the membrane pellet, protein abundance in the cytosol and membrane fraction approximately represent their relative expression in the intact cell. Protein concentration was measured in both fractions with the bicinchoninic acid (BCA) assay, and samples were normalized for protein concentration and assayed by electrophoresis and Western blotting as described below.
(§6) BAEC were stimulated with VEGF (1 nM; 3, 10, or 30 minutes) or PMA (100 nM, 10 minutes).
Method for PKCε: as §5, §6

On to insulin: bovine insulin (Sigma), for which the “Akt Ser473 phosphorylation increased after stimulation” value in test [1] (5 minutes) came out at 3.7±0.7 fold. The “eNOS Ser1179 phosphorylation increased during stimulation” value in test [2] (BAEC, 5 minutes) was found to be 1.8±0.2 fold.

For the molecule `CN(C)CCCn1cc(C2=C(c3c[nH]c4ccccc34)C(=O)NC2=O)c2ccccc21` [GFX, GF109203X], in test [1] (setting [3]), the “effect on the actions of PMA on Akt phosphorylation” value was “completely prevented”. In addition, the “effect on the actions of PMA on eNOS phosphorylation” value in [2] (setting [3]) is on record as “completely prevented”.

For the molecule VEGF, the “translocation of PKCε from cytosol to membrane fractions” value in the test with PKCε is on record as “stimulated translocation”. Also, in the test with PKCε (VEGF 1 nM, at 3 minutes), the “maximal decrease in cytosol expression of PKCε” value is recorded as 57±21% and the “maximal increase in membrane expression of PKCε” value is 31±5%. Besides, in [1] (5 minutes), the “Akt Ser473 phosphorylation increased after stimulation” value is given as 2.9±0.8 fold. For the same molecule, the “VEGF-stimulated Akt phosphorylation, fold increase” value in [1] (setting [4]) came to 1.7±0.1 fold. Further, the “translocation of PKCδ from cytosol to membrane fractions” value with PKCδ is “stimulated translocation”. Also, the “maximal decrease in cytosol expression of PKCδ” value in the test with PKCδ (VEGF 1 nM, at 3 minutes) stood at 29±25%. The “maximal increase in membrane expression of PKCδ” value with PKCδ (VEGF 1 nM, at 10 minutes) was found to be 39±10%. For the same molecule, the “eNOS Ser1179 phosphorylation increased during stimulation” value in [2] (BAEC, 5 minutes) stood at 2.6±0.5 fold. The “VEGF-stimulated eNOS phosphorylation, fold increase” value in test [2] (setting [4]) stood at 5.2±0.5 fold. Moreover, in the test on BAEC, the “VEGF-increased BrdU incorporation” value was found to be 34%. Moreover, the “VEGF-increased phosphorylation of Erk1/2” value in the test on Erk1/2 phosphorylation is 10±1.8 fold. Further, the “VEGF-stimulated decrease in VEGFR2 protein” value with VEGFR2 is 12±3%. For the same molecule, at PKCα, the “translocation of PKCα from cytosol to membrane fractions” value was “stimulated translocation”. For the same molecule, on PKCα (VEGF 1 nM, at 3 minutes), the “maximal decrease in cytosol expression of PKCα” value worked out at 18±10% and the “maximal increase in membrane expression of PKCα” value worked out at 72±57%.

On to `CCCCCCCCCCCCCC(=O)O[C@@H]1[C@@H](C)[C@@]2(O)[C@@H](C=C(CO)C[C@]3(O)C(=O)C(C)=C[C@@H]23)[C@@H]2C(C)(C)[C@]12OC(C)=O` [PMA, phorbol-12-myristate-13-acetate], for which, in the test on PKCε, the “translocation of PKCε from cytosol to membrane fractions” value is “stimulated translocation”. For the same molecule, the “decrease in Akt Ser473 phosphorylation” value was 79±4% in test [1] (after VEGF stimulation (1 nM, 5 minutes)); 81±4% in test [1] (after insulin stimulation (100 nM, 5 minutes)); 59±12% in test [1] (basal state). In the test on PKCδ, the “translocation of PKCδ from cytosol to membrane fractions” value is given as “stimulated translocation”. Besides, the “eNOS Ser1179 phosphorylation increase when VEGF was preceded by PMA” value in [2] (PMA 100 nM, 30 minutes, VEGF 1 nM, 5 minutes) was 2.7±0.4 fold. The “eNOS Ser1179 phosphorylation increase when insulin was preceded by PMA” value in [2] (PMA 100 nM, 30 minutes, insulin 100 nM, 5 minutes) worked out at 1.2±0.2 fold. The “increase in VEGF-stimulated eNOS Ser1179 phosphorylation” value in [2] (PMA in the presence of wortmannin) amounted to 50±9%. The “translocation of PKCα from cytosol to membrane fractions” value on PKCα was “stimulated translocation”.

Regarding `COC[C@H]1OC(=O)c2coc3c2[C@@]1(C)C1=C(C3=O)[C@@H]2CCC(=O)[C@@]2(C)C[C@H]1OC(C)=O` [wortmannin], in test [2] (Bos taurus, BAEC, wortmannin 100 nM, 30 minutes, VEGF 1 nM, 5 minutes, read-out: inhibition of VEGF-stimulated eNOS phosphorylation), the inhibition (as a rule, the change of the read-out against control, counted positive when it falls) at 0.1 µM was 30 ± 9%. Besides, the “eNOS phosphorylation, % of basal” value in [2] (wortmannin 100 nM, 30 minutes, unstimulated) was 63±1 % of basal.

B1: placental growth factor: placental growth factor, which activates VEGFR1 but not VEGFR2 (protein, UniProt P49763 19-221, looked up)
Placenta growth factor: LPAVPPQQWALSAGNGSSEVEVVPFQEVWGRSYCRALERLVDVVSEYPSEVEHMFSPSCVSLLRCTGCCGDENLHCVPVETANVTMQLLKIRSGDRPSYVELTFSQHVRCECRHSPGRQSPDMPGDFRADAPSFLPPRRSLPMLFRMEWGCALTGSQSAVWPSSPVPEEIPRMHPGRNGKKQQRKPLREKMKPERCGDAVPRR
For B1, the “phosphorylation of eNOS, Akt, Erk, or p38” value in the test with eNOS, Akt, Erk, or p38 is on record as “did not increase”.
